According to patent US20260347373A1, “HETEROCYCLIC COMPOUNDS, COMPOSITIONS THEREOF, AND METHODS OF TREATMENT THEREWITH” (BeOne Medicines I GmbH, priority 2023, published 2026):
pIC50: −log10 of the molar value. Read-outs that look alike come from different tables or passages of the source.

What was measured:
WT KRAS = WT KRAS (Homo sapiens, UniProt P01116); experiment: KRAS WT Probe Displacement Assay (TR-FRET, GDP-loaded); assay type: binding
From the text: (§1) The synthetic routes of probe 1 and 2, which have been disclosed in PCT/CN2022/070676, are hereby incorporated herein.

KRAS G12D = KRAS G12D (Homo sapiens, UniProt P01116, G12D); experiment: KRAS G12D Probe Displacement Assay (TR-FRET, GDP-loaded); assay type: binding
From the text: as §1

[1] = KRAS WT, read-out: KRAS^WT Probe Displacement Assay IC50
[2] = KRAS G12D, read-out: KRAS^G12D Probe Displacement Assay IC50
[3] = KRAS^WT Probe Displacement Assay IC50, KRAS WT
[4] = KRAS^G12D Probe Displacement Assay IC50, KRAS G12D

Chain of WT KRAS (P01116 1-188 isoform P01116-2): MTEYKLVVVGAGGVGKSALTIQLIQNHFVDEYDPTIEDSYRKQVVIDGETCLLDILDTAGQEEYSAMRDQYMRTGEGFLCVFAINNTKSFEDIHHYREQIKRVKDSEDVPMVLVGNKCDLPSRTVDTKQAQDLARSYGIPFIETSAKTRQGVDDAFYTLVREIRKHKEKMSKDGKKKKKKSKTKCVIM
Chain of KRAS G12D (P01116 1-188 isoform P01116-2 G12D): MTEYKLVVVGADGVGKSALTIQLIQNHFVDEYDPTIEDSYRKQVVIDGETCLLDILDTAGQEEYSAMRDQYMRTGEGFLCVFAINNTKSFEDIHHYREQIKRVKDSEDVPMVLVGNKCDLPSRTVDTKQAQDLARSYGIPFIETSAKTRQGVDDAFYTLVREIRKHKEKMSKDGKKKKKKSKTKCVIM

Row | Structure (SMILES) | pIC50 (WT KRAS; [1]) | pIC50 (KRAS G12D; [2]) | pIC50 (WT KRAS; [3]) | pIC50 (KRAS G12D; [4])
1 | Cc1cc(N)cc(-c2nc3c4c(nc(OCC5(CN6CC7CC6CC7(F)F)CC5)nc4c2F)N2C[C@H]4CC[C@H](N4)[C@H]2CCO3)c1C(F)(F)F [Example 174, 3-((6aR,7S,10R)-13-((1-((5,5-difluoro-2-azabicyclo[2.2.1]heptan-2-yl)methyl)cyclopropyl)methoxy)-1-fluoro-5,6,6a,7,8,9,10,11-octahydro-4-oxa-3,11a,12,14,15-pentaaza-7,10-methanocyclohepta[4,5]cycloocta[1,2,3-de]naphthalen-2-yl)-5-methyl-4-(trifluoromethyl)aniline] | 6.00 to 8.52 | > 9.52 |  | 
2 | Cc1cc(N)cc(-c2nc3c4c(nc(OCC5(CN6CCC(=C(F)F)C6)CC5)nc4c2F)N2C[C@H]4CC[C@H](N4)[C@H]2CCO3)c1C(F)(F)F [Example 149, 3-((6aR,7S,10R)-13-((1-((3-(difluoromethylene)pyrrolidin-1-yl)methyl)cyclopropyl)methoxy)-1-fluoro-5,6,6a,7,8,9,10,11-octahydro-4-oxa-3,11a,12,14,15-pentaaza-7,10-methano-cyclohepta[4,5]cycloocta [1,2,3-de]naphthalen-2-yl)-5-methyl-4-(trifluoromethyl) aniline] |  |  | 6.00 to 8.52 | > 9.52
3 | CO[C@@H]1C[C@@H](C(C)Oc2nc3c4c(nc(-c5cc(N)cc(C)c5C(F)(F)F)c(F)c4n2)OCC[C@@H]2[C@@H]4CC[C@H](CN32)N4)N(C)C1 (single isomer, unassigned) [Example 144] | 6.00 to 8.52 | > 9.52 |  | 
4 | CO[C@H]1CCN(CC2(COc3nc4c5c(nc(-c6cc(N)cc(C)c6C(F)(F)F)c(F)c5n3)OCC[C@@H]3[C@@H]5CC[C@H](CN43)N5)CC2)C1 [Example 88, 3-((6aR,7S,10R)-1-fluoro-13-((1-(((S)-3-methoxypyrrolidin-1-yl)methyl)cyclopropyl)methoxy)-5,6,6a,7,8,9,10,11-octahydro-4-oxa-3,11a,12,14,15-pentaaza-7,10-methanocyclohepta [4,5]cycloocta [1,2,3-de]naphthalen-2-yl)-5-methyl-4-(trifluoromethyl) aniline] |  |  | 6.00 to 8.52 | > 9.52
5 | Cc1cc(N)cc(-c2nc3c4c(nc(N5CC(C)(N(C)C)C5)nc4c2F)N2C[C@H]4CC[C@H](N4)[C@H]2CCO3)c1C(F)(F)F [Example 30] | 6.00 to 8.52 | 8.52 to 9.52 |  | 
6 | C=C1CN2C[C@H](F)C[C@]2(COc2nc3c4c(nc(-c5cc(N)cc(C)c5C(F)(F)F)c(F)c4n2)OCC[C@@H]2[C@@H]4CC[C@H](CN32)N4)C1 [Example 210, 3-((6aR,7S,10R)-1-fluoro-13-(((2R,7aS)-2-fluoro-6-methylenetetrahydro-1H-pyrrolizin-7a(5H)-yl)methoxy)-5,6,6a,7,8,9,10,11-octahydro-4-oxa-3,11a,12,14,15-pentaaza-7,10-methanocyclohepta[4,5]cycloocta[1,2,3-de]naphthalen-2-yl)-5-methyl-4-(trifluoromethyl)aniline] | 6.00 to 8.52 | > 9.52 |  | 
7 | Cc1cc(N)cc(-c2nc3c4c(nc(OCC5(CN6CC[C@@H](F)C6)CC5)nc4c2F)N2C[C@H]4CC[C@H](N4)[C@H]2CCO3)c1C(F)(F)F [Example 86, 3-((6aR,7S,10R)-1-fluoro-13-((1-(((R)-3-fluoropyrrolidin-1-yl)methyl)cyclopropyl)methoxy)-5,6,6a,7,8,9,10,11-octahydro-4-oxa-3,11a,12,14,15-pentaaza-7,10-methanocyclohepta [4,5]cycloocta [1,2,3-de]naphthalen-2-yl)-5-methyl-4-(trifluoromethyl) aniline] |  |  | 6.00 to 8.52 | > 9.52
8 | C=C1CN2C[C@H]3C[C@H]3[C@]2(COc2nc3c4c(nc(-c5cc(N)cc(C)c5C(F)(F)F)c(F)c4n2)OCC[C@@H]2[C@@H]4CC[C@H](CN32)N4)C1 [Example 212, 3-((6aR,7S,10R)-1-fluoro-13-(((1aS,6bR)-5-methylenehexahydrocyclopropa[a]pyrrolizin-6a(4H)-yl)methoxy)-5,6,6a,7,8,9,10,11-octahydro-4-oxa-3,11a,12,14,15-pentaaza-7,10-methanocyclohepta[4,5]cycloocta[1,2,3-de]naphthalen-2-yl)-5-methyl-4-(trifluoromethyl)aniline] | 6.00 to 8.52 | > 9.52 |  | 
9 | CO[C@H]1CN2C[C@H](F)C[C@]2(COc2nc3c4c(nc(-c5cc(N)cc(C)c5C(F)(F)F)c(F)c4n2)OCC[C@@H]2[C@@H]4CC[C@H](CN32)N4)C1 [Example 214, 3-((6aR,7S,10R)-1-fluoro-13-(((2R,6R,7aS)-2-fluoro-6-methoxytetrahydro-1H-pyrrolizin-7a(5H)-yl)methoxy)-5,6,6a,7,8,9,10,11-octahydro-4-oxa-3,11a,12,14,15-pentaaza-7,10-methanocyclohepta[4,5]cycloocta[1,2,3-de]naphthalen-2-yl)-5-methyl-4-(trifluoromethyl)aniline] | 6.00 to 8.52 | > 9.52 |  | 
10 | Cc1cc(N)cc(-c2nc3c4c(nc(OCC5(CN6C[C@@H]7C[C@H]6CO7)CC5)nc4c2F)N2C[C@H]4CC[C@H](N4)[C@H]2CCO3)c1C(F)(F)F [Example 68, 3-((6aR,7S,10R)-13-((1-(((1S,4S)-2-oxa-5-azabicyclo[2.2.1]heptan-5-yl)methyl)cyclopropyl)methoxy)-1-fluoro-5,6,6a,7,8,9,10,11-octahydro-4-oxa-3,11a,12,14,15-pentaaza-7,10-methanocyclohepta[4,5]cycloocta [1,2,3-de]naphthalen-2-yl)-5-methyl-4-(trifluoromethyl)aniline] | 6.00 to 8.52 | > 9.52 |  | 
11 | Cc1cc(N)cc(-c2nc3c4c(nc(OCC5(CN6C[C@@H]7[C@@H](F)[C@@H]7C6)CC5)nc4c2F)N2C[C@H]4CC[C@H](N4)[C@H]2CCO3)c1C(F)(F)F [Example 169, 3-((6aR,7S,10R)-1-fluoro-13-((1-(((1R,5S,6S)-6-fluoro-3-azabicyclo[3.1.0]hexan-3-yl)methyl)cyclopropyl)methoxy)-5,6,6a,7,8,9,10,11-octahydro-4-oxa-3,11a,12,14,15-pentaaza-7,10-methanocyclohepta[4,5]cycloocta[1,2,3-de]naphthalen-2-yl)-5-methyl-4-(trifluoromethyl)aniline] | 6.00 to 8.52 | > 9.52 |  | 
12 | Cc1cc(N)cc(-c2nc3c4c(nc(OCC5(CN6CCC(F)CC6)CC5)nc4c2F)N2C[C@H]4CC[C@H](N4)[C@H]2CCO3)c1C(F)(F)F [Example 66, 3-((6aR,7S,10R)-1-fluoro-13-((1-((4-fluoropiperidin-1-yl)methyl)cyclopropyl)methoxy)-5,6,6a,7,8,9,10,11-octahydro-4-oxa-3,11a,12,14,15-pentaaza-7,10-methanocyclohepta[4,5]cycloocta [1,2,3-de]naphthalen-2-yl)-5-methyl-4-(trifluoromethyl)aniline] | 6.00 to 8.52 | > 9.52 |  | 
13 | Cc1cc(N)cc(-c2nc3c4c(nc(OCC5(C)CC(F)CN(C6CCOCC6)C5)nc4c2F)N2C[C@H]4CC[C@H](N4)[C@H]2CCO3)c1C(F)(F)F (single isomer, unassigned) [Example 235] | 6.00 to 8.52 | 8.52 to 9.52 |  | 
